Test results: patent US20060116368A1, “4-Piperidinecarboxamide modulators of vanilloid VR1 receptor” (priority 2004, published 2006)

Target: T1, Human Vanilloid Receptor 1 (Homo sapiens, UniProt Q8NER1)
T1 construct: expressed in transfected cells; host or cells: HEK 293
Test: Human VR1 functional assay using FLIPR, Protocol 1
Type: cell-based
Conditions: for inhibition at 9 µM: HEK293, 9 uM, inhibition of capsaicin (EC80)-induced calcium response, HEK 293 cells transfected with hVR1, read-out: h % I (9 uM); for IC50: decreased capsaicin (EC80)-induced calcium response, HEK 293 hVR1, read-out: h IC50; for Emax at 12.2 µM: HEK293, 12.2 uM, test compound-induced calcium response (agonist mode), HEK 293 hVR1, read-out: % maximal reponse to capsaicin (12.2 uM); for EC50: test compound-induced calcium response at the 5-minute time point, HEK 293 hVR1, read-out: h EC50
Procedure: The functional activity of the test compounds was determined by measuring changes in intracellular calcium concentration using FLIPR™ Calcium-3 Assay Kit and FLIPR™ technology.
HEK 293 cells transfected with Human Vanilloid Receptor 1 were maintained at 37° C. and 5% CO2 in: Dulbecco's Modification of Eagle's Medium (high glucose, L-glutamine, pyridoxine HCl, No sodium pyruvate), 10% FBS, 1× Penicillin-Streptomycin-Amphotericin B, 200 ug/mL zeocin. Approximately 24 hours prior to assay, 30,000 cells/well were plated onto a 384-well black clear bottom poly-D-lysine-coated assay plate with a well volume of 25 µL using Titertek Multidrop.
On the day of the assay, the medium was dumped and 50 μL 1× dye were loaded using Multidrop. Plates were incubated with dye at 37° C. for 30 minutes followed by 30 minutes incubation at room temperature. Then the plates were assayed by FLIPR™ with 2 additions: 12.5 μL test compound with 5 minutes data acquisition followed by 12.5 μL capsaicin at the EC80 concentration.
The EC50 values of test compounds were calculated based on a test compound-induced calcium response at the 5-minute time point. The IC50 values of compounds were calculated based on a decreased capsaicin-induced calcium response in the presence of test compound.

T1 sequence (Q8NER1 whole entry): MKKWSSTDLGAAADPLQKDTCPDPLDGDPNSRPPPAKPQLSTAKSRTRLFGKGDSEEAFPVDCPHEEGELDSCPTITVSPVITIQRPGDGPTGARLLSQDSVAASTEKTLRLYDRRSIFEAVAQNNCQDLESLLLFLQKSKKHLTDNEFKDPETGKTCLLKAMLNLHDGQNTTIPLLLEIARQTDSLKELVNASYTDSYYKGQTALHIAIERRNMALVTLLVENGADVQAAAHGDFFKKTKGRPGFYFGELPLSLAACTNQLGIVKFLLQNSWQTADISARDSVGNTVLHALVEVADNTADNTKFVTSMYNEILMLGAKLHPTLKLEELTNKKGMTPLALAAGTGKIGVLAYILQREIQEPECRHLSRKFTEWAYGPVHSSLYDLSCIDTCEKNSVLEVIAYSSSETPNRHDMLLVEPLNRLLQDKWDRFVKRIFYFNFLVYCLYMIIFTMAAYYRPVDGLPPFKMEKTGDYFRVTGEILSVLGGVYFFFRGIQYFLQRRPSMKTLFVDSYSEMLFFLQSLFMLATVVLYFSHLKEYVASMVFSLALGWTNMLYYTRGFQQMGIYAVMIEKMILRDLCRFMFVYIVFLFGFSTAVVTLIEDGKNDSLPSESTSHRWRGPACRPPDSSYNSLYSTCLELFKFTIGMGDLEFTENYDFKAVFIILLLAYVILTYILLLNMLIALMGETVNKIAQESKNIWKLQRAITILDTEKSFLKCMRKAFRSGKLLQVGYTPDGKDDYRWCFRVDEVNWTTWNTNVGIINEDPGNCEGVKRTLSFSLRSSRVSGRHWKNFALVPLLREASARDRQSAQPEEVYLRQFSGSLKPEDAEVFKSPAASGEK

inhibition at 9 µM [%] | IC50 [nM] | Emax at 12.2 µM [%] | EC50 [nM] | SMILES
20.7 |  |  |  | O=C1COc2ccc(NC(=O)C3CCN(c4nc5ccccc5s4)CC3)cc2N1 [Example 159, 1-Benzothiazol-2-yl-piperidine-4-carboxylic acid (3-oxo-3,4-dihydro-2H-benzo[1,4]oxazin-6-yl)-amide]
14 |  |  |  | CN(C)c1nc(NC(=O)C2CCN(c3cccc(C(F)(F)F)c3)CC2)ncc1-c1ccccc1 [Example 35, 1-(3-Trifluoromethyl-phenyl)-piperidine-4-carboxylic acid (4-dimethylamino-5-phenyl-pyrimidin-2-yl)-amide]
7 |  |  |  | O=C(Nc1cnc2ccccc2c1)C1CCN(c2ccc(-c3ccccc3)cc2)CC1 [Example 1, 1-Biphenyl-4-yl-piperidine-4-carboxylic acid quinolin-3-ylamide]
13 |  |  |  | CC(=O)N1CCc2cc(NC(=O)C3CCN(c4cccc(C(F)(F)F)c4)CC3)ccc21 [Example 29, 1-(3-Trifluoromethyl-phenyl)-piperidine-4-carboxylic acid (1-acetyl-2,3-dihydro-1H-indol-5-yl)-amide]
45.7 |  |  |  | O=C1COc2ncc(NC(=O)C3CCN(c4cccc(C(F)(F)F)c4)CC3)cc2N1 [Example 167, 1-(3-Trifluoromethyl-phenyl)-piperidine-4-carboxylic acid (2-oxo-2,3-dihydro-1H-pyrido[2,3-b][1,4]oxazin-7-yl)-amide]
109 | 600 |  |  | O=C(Nc1cnc2ccccc2c1)C1CCN(c2cccc(C(F)(F)F)c2)CC1 [Example 2, 1-(3-Trifluoromethyl-phenyl)-piperidine-4-carboxylic acid quinolin-3-ylamide]
93 | 130 |  |  | O=C1COc2ccc(NC(=O)C3CCN(c4cccc(F)c4Br)CC3)cc2N1 [Example 160, 1-(2-Bromo-3-fluoro-phenyl)-piperidine-4-carboxylic acid (3-oxo-3,4-dihydro-2H-benzo[1,4]oxazin-6-yl)-amide]
33 |  |  |  | O=C1COc2cc(NC(=O)C3CCN(c4cccc(C(F)(F)F)c4)CC3)ccc2N1 [Example 44, 1-(3-Trifluoromethyl-phenyl)-piperidine-4-carboxylic acid (3-oxo-3,4-dihydro-2H-benzo[1,4]oxazin-7-yl)-amide]
77 | 2180 |  |  | O=C(Nc1ccc2c(c1)OCCCO2)C1CCN(c2cccc(C(F)(F)F)c2)CC1 [Example 28, 1-(3-Trifluoromethyl-phenyl)-piperidine-4-carboxylic acid (3,4-dihydro-2H-benzo[b][1,4]dioxepin-7-yl)-amide]
11.5 |  |  |  | Cc1nc2ccc(NC(=O)C3CCN(c4cccc(C(F)(F)F)c4)CC3)nc2nc1C [Example 40, 1-(3-Trifluoromethyl-phenyl)-piperidine-4-carboxylic acid (2,3-dimethyl-pyrido[2,3-b]pyrazin-6-yl)-amide]
13 |  |  |  | O=C(Nc1ccc(Oc2ccccc2)nc1)C1CCN(c2cccc(C(F)(F)F)c2)CC1 [Example 32, 1-(3-Trifluoromethyl-phenyl)-piperidine-4-carboxylic acid (6-phenoxy-pyridin-3-yl)-amide]
16 |  |  |  | Cn1cnc2c(N3CCC(C(=O)Nc4cccc5[nH]ccc45)CC3)ncnc21 [Example 54, 1-(9-Methyl-9H-purin-6-yl)-piperidine-4-carboxylic acid (1H-indol-4-yl)-amide]
72 | 2840 |  |  | O=C(Nc1cccc2cn[nH]c12)C1CCN(c2cccc(C(F)(F)F)c2)CC1 [Example 11, 1-(3-Trifluoromethyl-phenyl)-piperidine-4-carboxylic acid (1H-indazol-7-yl)-amide]
 |  | 62.8 | 320 | O=C1Cc2ccc(NC(=O)C3CCN(c4cccc(C(F)(F)F)c4)CC3)cc2N1 [Example 38, 1-(3-Trifluoromethyl-phenyl)-piperidine-4-carboxylic acid (2-oxo-2,3-dihydro-1H-indol-6-yl)-amide]
16 |  |  |  | O=C(Nc1ccc2c(=O)[nH][nH]c(=O)c2c1)C1CCN(c2cccc(C(F)(F)F)c2)CC1 [Example 31, 1-(3-Trifluoromethyl-phenyl)-piperidine-4-carboxylic acid (1,4-dioxo-1,2,3,4-tetrahydro-phthalazin-6-yl)-amide]
87 | 110 |  |  | O=C1COc2ccc(NC(=O)C3CCN(c4c(F)c(F)c(Br)c(F)c4F)CC3)cc2N1 [Example 164, 1-(4-Bromo-2,3,5,6-tetrafluoro-phenyl)-piperidine-4-carboxylic acid (3-oxo-3,4-dihydro-2H-benzo[1,4]oxazin-6-yl)-amide]
19.7 |  |  |  | N#Cc1ccc(C(F)(F)F)cc1N1CCC(C(=O)Nc2ccc3c(c2)NC(=O)CO3)CC1 [Example 163, 1-(2-Cyano-5-trifluoromethyl-phenyl)-piperidine-4-carboxylic acid (3-oxo-3,4-dihydro-2H-benzo[1,4]oxazin-6-yl)-amide]
39 |  |  |  | Cc1cccnc1N1CCC(C(=O)Nc2ccc3c(c2)NC(=O)CO3)CC1 [Example 158, 3′-Methyl-3,4,5,6-tetrahydro-2H-[1,2′]bipyridinyl-4-carboxylic acid (3-oxo-3,4-dihydro-2H-benzo[1,4]oxazin-6-yl)-amide]
78 | 1070 |  |  | O=C(Nc1ccc2[nH]ccc2c1)C1CCN(c2cccc(C(F)(F)F)c2)CC1 [Example 22, 1-(3-Trifluoromethyl-phenyl)-piperidine-4-carboxylic acid (1H-indol-5-yl)-amide]
85 | 1810 |  |  | O=C1COc2ccc(NC(=O)C3CCN(c4ccccc4)CC3)cc2N1 [Example 139, 1-Phenyl-piperidine-4-carboxylic acid (3-oxo-3,4-dihydro-2H-benzo[1,4]oxazin-6-yl)-amide]
100 | 290 |  |  | O=C1COc2ccc(NC(=O)C3CCN(c4cc(C(F)(F)F)ccc4C(F)(F)F)CC3)cc2N1 [Example 166, 1-(2,5-Bis-trifluoromethyl-phenyl)-piperidine-4-carboxylic acid (3-oxo-3,4-dihydro-2H-benzo[1,4]oxazin-6-yl)-amide]
102 | 230 |  |  | Cc1cccc(N2CCC(C(=O)Nc3cnc4ccccc4c3)CC2)c1C [Example 5, 1-(2,3-Dimethyl-phenyl)-piperidine-4-carboxylic acid quinolin-3-ylamide]
28.7 |  |  |  | O=C1COc2ccc(NC(=O)C3CCN(c4ncccc4[N+](=O)[O-])CC3)cc2N1 [Example 161, 3′-Nitro-3,4,5,6-tetrahydro-2H-[1,2′]bipyridinyl-4-carboxylic acid (3-oxo-3,4-dihydro-2H-benzo[1,4]oxazin-6-yl)-amide]
79.3 | 1420 |  |  | COc1cccc(N2CCC(C(=O)Nc3ccc4c(c3)NC(=O)CO4)CC2)c1 [Example 150, 1-(3-Methoxy-phenyl)-piperidine-4-carboxylic acid (3-oxo-3,4-dihydro-2H-benzo[1,4]oxazin-6-yl)-amide]
7.5 |  |  |  | O=C(Nc1cnc2ccccc2c1)C1CCN(c2ccc(C(F)(F)F)cc2)CC1 [Example 4, 1-(4-Trifluoromethyl-phenyl)-piperidine-4-carboxylic acid quinolin-3-ylamide]
 |  | 81 | 860 | O=C(Nc1ncnc2sccc12)C1CCN(c2cccc(C(F)(F)F)c2)CC1 [Example 10, 1-(3-Trifluoromethyl-phenyl)-piperidine-4-carboxylic acid thieno[2,3-d]pyrimidin-4-ylamide]
3.5 |  |  |  | O=C(Nc1ncnc2ccccc12)C1CCN(c2cccc(C(F)(F)F)c2)CC1 [Example 39, 1-(3-Trifluoromethyl-phenyl)-piperidine-4-carboxylic acid quinazolin-4-ylamide]
